Laboratory results reported in patent US4782014A, “Assay and purification of amyloid components, applications, and kits therefor” (Ciba-Geigy Corporation, priority 1985, dated 1988).

B1: SAA: α1 globulin consisting of a single polypeptide chain of molecular weight between 11'500 and 14'000 Dalton (protein, UniProt P0DJI8 19-122, looked up)
Serum amyloid A-1 protein: RSFFSFLGEAFDGARDMWRAYSDMREANYIGSDKYFHARGNYDAAKRGPGGAWAAEVITDARENIQRFFGHGAEDSLADQAANEWGRSGKDPNHFRPAGLPEKY

How the values were obtained:
[1] = target: human SAP binding to TNP-KLH coated polystyrene (Homo sapiens, UniProt P02743); test: Inhibition of binding of human SAP to TNP-KLH coated polystyrene; conditions: for IC50 / concentration at 50% inhibition of human SAP binding to TNP-KLH coated polystyrene: 40 ng/ml human SAP, preincubated 2 hours at 20° C.; for IC50: read-out: concentration at 50% inhibition of human SAP binding to TNP-KLH coated polystyrene
Description: The samples containing 40 ng/ml human SAP are preincubated with dilutions of the compound to be tested as an inhibitor for two hours at 20° C. The perent decrease in SAP binding to TNP-KLH is calculated in comparison to the SAP binding in the absence of any inhibitor.

[2] = ELISA for SAP: binding of purified human SAP to plastic surface
Description: The wells of flat-bottom polystyrene microtiter plates (Immulon®, Dynatech, Zug, Switzerland) or polyvinyl chloride microtiter plates (Microtest III™, Becton Dickinson, Oxnard, CA, USA) are incubated with either 100 μl 0.3M NaHCO3 alone, 100 μl KLH 2 μg/ml in 0.3M NaHCO3, or 100 μl TNP-KLH (Example 1) 2 μg/ml in 0.3M NaHCO3 for one hour or more at room temperature. […] The plates are washed with 5 mM CaCl2, then incubated with 100 μl each of human SAP containing samples (standard solutions or serum dilutions in ELISA buffer) for 2 hours at 20° C. […] The plates are washed with 5 mM CaCl2, incubated for 2 hours at 20° C. with 100 μl of rabbit antiserum to human SAP (Calbiochem) diluted 1:10^4 with ELISA buffer, washed again with 5 mM CaCl2, and incubated overnight in a water-saturated atmosphere at 20° C. with 100 μl of horseradish peroxidase conjugated donkey anti-rabbit Ig antiserum (Amersham Int., Amersham, UK) diluted 1:5000 with ELISA buffer. The plates are washed, then developed with 100 μl per well of buffered o-phenylenediamine (100 mg in 48.6 ml 0.1M citric acid and 51.4 ml 0.2M Na2 HPO4, pH 5.0) containing 0.03% H2 O2 in the dark at 20° C. for 15 minutes. The reaction is stopped by addition of 25 μl 2.5M H2 SO4 and the optical density of the colour developed by the enzyme reaction determined at 492 nm using a Titertek® multiscan spectrophotometer (Flow Laboratories). […]

[3] = Retention of SAP on TNP-Sepharose column; type: binding, human; conditions: absence of Ca^2+ ions, TBS
[4] = ELISA for SAA: binding of human SAA to polystyrene

Chain of human SAP binding to TNP-KLH coated polystyrene (P02743 20-223): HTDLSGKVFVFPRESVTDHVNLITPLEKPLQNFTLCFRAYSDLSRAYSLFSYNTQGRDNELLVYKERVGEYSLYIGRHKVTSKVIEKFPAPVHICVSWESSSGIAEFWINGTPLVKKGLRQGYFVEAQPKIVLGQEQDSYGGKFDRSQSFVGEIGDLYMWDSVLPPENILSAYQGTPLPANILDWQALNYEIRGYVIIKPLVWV

Row | Molecule | inhibition of SAP binding to TNP-KLH coated polystyrene, in words [1] | IC50 [1] | other results
1 | O=[N+]([O-])c1cc([N+](=O)[O-])c2ccc(S(=O)(=O)O)cc2c1O [2,4-dinitro-1-naphthol-7-sulphonic acid] | Inhibiting properties | 43.3 ± 5.8 mM | –
2 | O=C(O)CN(CCN(CC(=O)O)CC(=O)O)CC(=O)O [EDTA, ethylenediamine-N,N,N',N'-tetraacetic acid] | inhibitors of SAP binding at concentrations equal or in excess of the Ca^2+ concentration | 5.35 ± 1.3 mM | –
3 | O=C(O)CN(CCOCCOCCN(CC(=O)O)CC(=O)O)CC(=O)O [EGTA, 1,2-di(2-aminoethoxy)ethane-N,N,N',N'-tetraacetic acid] | inhibitors of SAP binding at concentrations equal or in excess of the Ca^2+ concentration | 17 ± 2.2 mM | –
4 | Nc1ccc([As](=O)(O)O)cc1 [p-aminophenyl-arsonic acid] | Inhibiting properties | 27.3 ± 4.9 mM | –
5 | O=[N+]([O-])c1ccc([As](=O)(O)O)cc1 [p-nitrophenylarsonic acid] | Inhibiting properties | 4.2 ± 1.3 mM | –
6 | SAP: serum amyloid P-component, a 9.5S α1 glycoprotein of 235'000 Dalton molecular weight | – | – | SAP binding at reduced CaCl2 concentration ([2]; 0.06 mM or lower concentrations of CaCl2): no SAP is bound; SAP binding at reduced CaCl2 concentration ([2]; 0.12 mM CaCl2): sharp decrease of SAP binding; retention of SAP on TNP-Sepharose [3]: not retained
7 | TNP-BSA: prepared from BSA and 2,4,6-trinitrobenzenesulfonic acid yielding a conjugate with 15 TNP residues per BSA molecule | compete efficiently for SAP | – | concentration at 50% inhibition of human SAP binding to TNP-KLH coated polystyrene [1]: 0.33 ± 0.06 µg/mL
8 | pectic acid | Inhibiting properties | – | concentration at 50% inhibition of human SAP binding to TNP-KLH coated polystyrene [1]: 0.2 ± 0.07 µg/mL
9 | B1 | – | – | binding of human SAA to KLH-coated polystyrene and polystyrene alone, in words ([4]; KLH-coated polystyrene and polystyrene alone): Substantial binding; binding of human SAA to polystyrene coated with TNP-KLH, in words ([4]; TNP-KLH coated polystyrene): very efficiently; binding of human SAA when Ca^2+ is omitted, in words ([4]; TNP-KLH coated polystyrene, Ca^2+ omitted): without loss in binding efficiency
